According to patent US12365686B2, “Compound as porcupine inhibitor and use thereof” (JIANGSU KANION PHARMACEUTICAL CO., LTD., priority 2019, dated 2025):
Where a name gives a salt, the structure may show the parent alone.

Assays:
Capan-2 cells = assay: Anti-proliferative activity on Capan-2 cells; format: cell-based; settings: Homo sapiens, Capan-2, 120 h; 5 days, CellTiter-Glo
Procedure: 2. Assay of Anti-Proliferative Activity on Capan-2 Cells
Capan-2 cells were planted in a white 96-well plate with 80 μL of cell suspension per well, which contained 5000 Capan-2 cells. The cell plate was placed in a carbon dioxide incubator for culture overnight.
The assay compound was serially diluted 3-fold with a discharge gun to the 9th concentration, that is, from 200 μM to 30 nM, in duplicate. 78 μL of medium was added to the middle plate, and then 2 μL of the serially diluted compound was transferred to each well of the middle plate according to the corresponding position. After mixing, 20 μL of the mixture was transferred to each well of the cell plate. The cell plate was incubated in a carbon dioxide incubator for 5 days. Another cell plate was prepared, and read on the day of drug addition. The signal value was used as the maximum value (The value of Max in the equation below) in data analysis. 25 μL of chemiluminescence detection reagent for cell viability was added to each well of this cell plate, and this cell plate was incubated at room temperature for 10 minutes to stabilize the luminescence signal. A multi-label analyzer was used to read results.
After the cell plate was cultured for 5 days, 25 μL of Promega CellTiter-Glo reagent was added to each well of the cell plate. The cell plate was incubated at room temperature for 10 minutes to stabilize the luminescence signal. A multi-label analyzer was used to read results.
The value of IC50 can be obtained by curve fitting. Table 2 provides the inhibitory activity of the compounds of the present disclosure on Capan-2 cell proliferation.

[1] = tested on: STF reporter gene for WNT pathway (Porcupine of the Wnt signaling pathway); assay: Inhibitory activity on Super-Top-Flash (STF) reporter gene; format: cell-based; settings: HEK293 STF and L wnt3A cells 1:1, 24 hours, Bright-Glo
Procedure: 1. Assay of Inhibitory Activity on Super-Top-Flash (STF) Reporter Gene
HEK293 STF and L wnt3A cells were planted at a ratio of 1:1 in a white 96-well plate with 80 μL of cell suspension per well, which contained 20,000 HEK293 STF cells and 20,000 L wnt3A cells. The cell plate was placed in a carbon dioxide incubator for culture overnight.
The assay compound was serially diluted 5-fold with a discharge gun to the 8th concentration, that is, from 400 μM to 5.12 nM, in duplicate. 78 μL of medium was added to the middle plate, and then 2 μL of the serially diluted compound was transferred to each well of the middle plate according to the corresponding position. After mixing, 20 μL of the mixture was transferred to each well of the cell plate. The cell plate was placed in a carbon dioxide incubator for 24 hours.
100 μL of Promega Bright-Glo reagent was added to each well of the cell plate, and the cell plate was incubated at room temperature for 10 minutes to stabilize the luminescence signal. A multi-label analyzer was used to read results.
The original data of the multi-label analyzer was used for calculation, and the value of IC50 can be obtained by curve fitting. Table 1 provides data of the inhibitory activity of the compounds of the present disclosure on the Wnt signaling pathway.

[2] = tested on: human pancreatic cancer Capan-2 xenograft tumor; assay: In vivo drug efficacy on Capan-2 transplanted tumor in nude mice; settings: for T/C % / TGI %: 5 mg/Kg, BID, 31 days, Capan-2 Xenograft model
Procedure: 3. Assay of In Vivo Drug Efficacy on Capan-2 Transplanted Tumor in Nude Mice
Capan-2 cells were cultured in McCoy's 5A medium, containing 10% fetal bovine serum FBS, in a 37° C. incubator with 5% CO2. Tumor cells were collected after passaging and growing to a suitable concentration and during the logarithmic growth phase. The cells resuspended in McCoy's 5A medium were counted and the cell suspension was adjusted to a concentration of 2×10^7/mL for inoculation.
Establishment of human pancreatic cancer Capan-2 xenograft tumor. Cells were collected and the concentration was adjusted to 2×10^7 (resuspend with McCoy's 5A medium to a cell suspension containing 50% Martigel). Under aseptic conditions, 0.1 mL of tumor cells was injected subcutaneously into the right back of the mouse, and the number of cells inoculated per mouse was 2×10^6. After the tumor was grown to a certain size, digital vernier calipers was used to measure the length (a) and width (b) of the tumor, and the tumor volume was calculated. The calculation formula of tumor volume (TV) was: TV=a×b^2/2.
Capan-2 tumor cells were inoculated. When the tumor was grown to about 150 cubic millimeters, mice were divided into groups with 6 mice in each group. The day of grouping was regarded as day 0, and the drug was administered on the day of grouping. During the assay, the animal's body weight and tumor size were measured twice a week, and the animal's clinical symptoms were observed and recorded every day. For each administration, the most recently weighed animal body weight was referred to.
The evaluation index of anti-tumor activity is relative tumor proliferation rate T/C (%), wherein T/C (%)>40% means ineffective, and T/C (%)<40% and statistically P<0.05 means effective. The calculation formula of T/C (%) is: T/C (%)=(TRTV/CRTV)×100%. TRTV is relative tumor volume of the treatment group, and CRTV is relative tumor volume of the negative control group. TGI (%)^b tumor inhibition rate=(average tumor volume or weight of negative control group-average tumor volume or weight of administration group)/average tumor volume or weight of negative control group×100%. TGI (%)^a=[(1−(average tumor volume of a certain administration group at the time of measurement-average tumor volume of the administration group at the beginning of the administration))/(average tumor volume of vehicle control group at the time of measurement-average tumor volume of the vehicle control group at the beginning of the administration)]×100%.

[3] = Pharmacokinetic evaluation of compounds in mice; format: in vivo; settings: mouse, plasma, male CD-1 mice; for clearance / bioavailability / half-life / Vd: IV 0.5 mg/kg; for bioavailability / AUC(0-t): PO 2.5 mg/kg; for half-life: read-out: T1/2 IV (converted); for Vd: read-out: Vdss; for AUC(0-t): read-out: AUC0-last PO; for Cmax: single dose, route not stated (IV 0.5 mg/kg, PO 2.5 mg/kg)
Procedure: Assay 4: Pharmacokinetic Evaluation of Compounds
Assay purpose: Pharmacokinetics of compounds in […] mice was assayed.
CD-1 mice (male, 7-9 weeks old, Shanghai Slack)
The pharmacokinetic characteristics of rodents after intravenous (IV) and oral (PO) administration of compounds were assayed by standard protocols. In the assay, mice were given a single intravenous injection and oral administration. The vehicle for intravenous injection was water. The oral vehicle was 0.5% hypromellose. Four male CD-1 mice were used in this project. Two mice were administered intravenously at a dose of 0.5 mg/kg, and plasma samples were collected at 0 h (before administration) and 0.083, 0.25, 0.5, 1, 2, 4, 8, and 24 h after administration. The other two mice were orally administered by gavage at a dose of 2.5 mg/kg, and plasma samples were collected at 0 h (before administration) and 0.25, 0.5, 1, 2, 4, 8, and 24 h after administration. Whole blood samples within 24 hours were collected, and centrifuged at 3000 g for 15 minutes. The supernatant was separated to obtain a plasma sample, and protein was precipitated by adding 4 times volume of acetonitrile solution containing internal standard. The mixture was centrifuged to obtain a supernatant, and an equal volume of water was added to the obtained supernatant. The mixture was then centrifuged to obtain a supernatant for injection. The blood drug concentration was quantitatively analyzed by LC-MS/MS analysis method, and pharmacokinetic parameters were calculated, such as peak concentration (Cmax), clearance rate (CL), half-life (T1/2), […] (Vdss), area under the drug-time curve (AUC0-last), and bioavailability (F), etc.
The assay results are shown in Table 4: The compounds of the present disclosure have good pharmacokinetic properties.

Compound | IC50 (Capan-2 cells) [nM] | IC50 [1] [nM] | also measured
Cc1cc(-c2ccc(CNc3nccn4c(-c5ccccc5)cnc34)c(F)c2)ccn1 [Compound 31] | 4.7 | – | –
Cc1cc(-c2ncc(CNc3nccn4c(-c5ccc(F)cc5)cnc34)cc2C)ccn1 [Compound 3] | – | 0.96 | –
Cc1cc(-c2ncc(C(C)Nc3nccn4c(-c5ccccc5)cnc34)cc2C)ccn1 (stereo not drawn) [Compound 32 (hydrochloride)] | 3.04 | – | –
COc1ccc(-c2cnc3c(NCc4cnc(-c5ccnc(C)c5)c(C)c4)nccn23)cc1 [Compound 9 (formate)] | 103 | 8.95 | –
Cc1cc(-c2ncc(CNc3nccn4c(C(=O)Nc5ccccc5)cnc34)cc2C)ccn1 [15 (formate)] | – | 0.15 | –
Cc1cc(-c2ncc(CNc3nccn4c(-c5ccccc5)ncc34)cc2C)ccn1 [Compound 11] | – | 0.05 | T/C % [2]: 31.29%; TGI % [2]: 82.8%
Cc1cc(CNc2nccn3c(-c4ccccc4)cnc23)cnc1-c1ccnn1C [Compound 18] | 19.1 | 0.0128 | –
Cc1cc(-c2ncc(CNc3nccn4c(-c5ccccc5)cnc34)cc2F)ccn1 [Compound 21] | 0.43 | – | –
Cc1cc(-c2ncc(CNc3nccn4c(-c5cc(F)cc(F)c5)cnc34)cc2OCCN(C)C)ccn1 [Compound 33] | 2.3 | – | T/C % [2]: 17.71%; TGI % [2]: 92.6%; clearance [3]: 35.1 mL/min/kg; bioavailability [3]: 37.4%; half-life [3]: 3.69 h; Vd [3]: 9.52 L/kg; AUC(0-t) [3]: 0.975 µM·h; Cmax [3]: 107 nM
Cc1cc(-c2ccc(CNc3nccn4c(-c5ccccc5)cnc34)cc2C)ccn1 [Compound 17] | 1.45 | 0.23 | –
Cc1cc(-c2ncc(CNc3nccn4c(-c5cccc(Cl)c5)cnc34)cc2C)ccn1 [Compound 28 (hydrochloride)] | 1.43 | 0.86 | clearance [3]: 4.16 mL/min/kg; bioavailability [3]: 66.6%; half-life [3]: 2.6 h; Vd [3]: 0.553 L/kg; AUC(0-t) [3]: 15.1 µM·h; Cmax [3]: 2340 nM
Cc1cc(-c2ncc(CNc3nccn4c(-c5ccc(C#N)cc5)cnc34)cc2C)ccn1 [Compound 8] | 109 | 6.56 | –
Cc1cc(-c2ncc(CNc3nccn4c(-c5cccc(F)c5)cnc34)cc2C)ccn1 [Compound 29 (hydrochloride)] | 0.35 | 0.38 | clearance [3]: 5.05 mL/min/kg; bioavailability [3]: 89%; half-life [3]: 2.78 h; Vd [3]: 0.641 L/kg; AUC(0-t) [3]: 17.3 µM·h; Cmax [3]: 2640 nM
Cc1cc(-c2ncc(CNc3nccn4c(C5CC5)cnc34)cc2C)ccn1 [Compound 10] | > 1000 | 13.5 | –
Cc1cc(-c2ncc(CNc3nccn4c(-c5cc(F)cc(F)c5)cnc34)cc2F)ccn1 [Compound 36 (formate)] | 0.21 | – | T/C % [2]: 21%; TGI % [2]: 88.86%; clearance [3]: 6.5 mL/min/kg; bioavailability [3]: 50.6%; half-life [3]: 3.05 h; Vd [3]: 1.35 L/kg; AUC(0-t) [3]: 7.23 µM·h; Cmax [3]: 980 nM
CC(=O)N1CCC(c2cnc3c(NCc4cnc(-c5ccnc(C)c5)c(C)c4)nccn23)CC1 [Compound 14] | – | < 0.001 | –
Cc1cc(-c2ccc(CNc3nccn4c(-c5ccccc5)cnc34)cc2C#N)ccn1 [Compound 22 (formate)] | 1.24 | – | clearance [3]: 8.24 mL/min/kg; bioavailability [3]: 71.9%; half-life [3]: 3.13 h; Vd [3]: 1.09 L/kg; AUC(0-t) [3]: 11.9 µM·h; Cmax [3]: 1820 nM
Cc1cc(-c2ncc(CNc3nccn4c(C5CCN(C(C)C)CC5)cnc34)cc2C)ccn1 [Compound 13 (formate)] | – | 0.56 | –
Cc1cc(-c2ncc(CC(=O)Nc3ccc(-c4cnccn4)cn3)cc2C)ccn1 [LGK974, reference compound] | – | – | inhibitory effect on human pancreatic cancer Capan-2 xenograft tumor (in words) ([2]; 5 mg/Kg BID (twice a day) for 31 days): inhibitory effect; T/C % [2]: 36.33%; TGI % [2]: 78.3%
Cc1cc(-c2ncc(CNc3nccn4c(-c5cnn(C)c5)cnc34)cc2C)ccn1 [Compound 4] | 964 | 0.14 | –
Cc1cc(-c2ncc(C(CO)Nc3nccn4c(-c5ccccc5)cnc34)cc2C)ccn1 (stereo not drawn) [Compound 35] | 10.1 | – | –
Cc1cc(-c2ncc(CNc3nccn4c(-c5cccnc5)cnc34)cc2C)ccn1 [Compound 2] | 4.26 | 0.12 | –
COc1cc(-c2ncc(CNc3nccn4c(-c5ccccc5)cnc34)cc2C)ccn1 [Compound 20] | 18.5 | 0.4 | –
Cc1cc(-c2ccc(CNc3nccn4c(-c5ccccc5)cnc34)cn2)ccn1 [Compound 19] | 4.61 | 0.017 | –
Cc1cc(-c2ccc(CNc3nccn4c(-c5ccccc5)cnc34)cc2N(C)C)ccn1 [Compound 23] | 0.74 | – | –
Cc1cc(-c2ncc(CNc3nccn4c(C(=O)N(C)C)cnc34)cc2C)ccn1 [Compound 16] | – | < 0.001 | –
Cc1cc(-c2ncc(CNc3nccn4c(-c5cc(F)cc(F)c5)cnc34)cc2OC2CCN(C)CC2)ccn1 [Compound 34] | 1.9 | – | –
Cc1cc(-c2ncc(CNc3nccn4c(N5CCNCC5)cnc34)cc2C)ccn1 [Compound 5] | – | 9.7 | –
CC(=O)N1CCN(c2cnc3c(NCc4cnc(-c5ccnc(C)c5)c(C)c4)nccn23)CC1 [Compound 6] | – | 0.58 | –
